From ChEMBL document CHEMBL1150908, “Mollenines A and B: new dioxomorpholines from the ascostromata of Eupenicillium molle” (1998)
Activity calls are given as the source filed them. The calls are words filed in the database; no cut-off is given here.

Experiments:
[1] = Cytotoxicity against human NCI60 cells; assay type: functional
Bacillus subtilis = assay: Antimicrobial activity against Bacillus subtilis at 200 ug/disk; assay type: functional, organism-based

CC(C)=CC[C@@]12C[C@@H]3C(=O)O[C@H](CC(C)C)C(=O)N3[C@@H]1Nc1ccccc12 [MOLLENINE A]
GI50 [1]: 31 µM
Activity (Bacillus subtilis): Active
